# Calls of active or inactive are those of the source. The rule behind the calls is not given here.
# Key:
# Bacillus subtilis = assay: Antimicrobial activity against Bacillus subtilis at 100 ug/ml; format: functional, organism-based
# Staphylococcus aureus = assay: Antimicrobial activity against Staphylococcus aureus at 100 ug/ml; format: functional, organism-based
structure (smiles),measurement,setting,value
COc1cc(C/C=C(/C)CC/C=C(\C)CC/C=C(\C)CCC=C(C)C)cc(O)c1O,Activity,Bacillus subtilis,Active
same,Activity,Staphylococcus aureus,Active

# From ChEMBL document CHEMBL1158944, “Chemistry of Sponges, XII. A New Dihydric Phenol from the Sponge Fasciospongia sp” (J Nat Prod, 1991)
